This assay has as its system mouse sperm. Briefly: Mouse sperm total motility in vitro (CASA). It is filed as cell-based. The conditions noted are these: for Emax: Mus musculus, Sperm, 1 h, nanomolar range concentration, read-out: Maximal Motility Inhibition (%); for Emax / Shape of inhibitory dose response on sperm motility: mouse sperm total motility. The method, then: To characterize the SAR of these compounds, we first evaluated their effects on total sperm motility in vitro. Sperm isolated from the cauda epididymis of mice were incubated with the test compounds in modified Whitten’s medium under non-capacitating conditions. Motility was assessed using a computer-assisted sperm analysis (CASA) system.
All experimental protocols involving animals used in this work were approved by the University of Kansas Medical Center Institutional Animal Care and Use Committee (ACUP number: 22-09-26, 10/2022). C57BL/6 mice were purchased from Harlan (Indianapolis, IN, USA). Spermatozoa were isolated from the cauda of adult mouse epididymis in Whitten’s medium, containing 100 mM NaCl, 4.7 mM KCl, 1.2 mM KH2PO4, 1.2 mM MgSO4, 5.5 mM glucose, 0.8 mM pyruvic acid, 4.8 mM lactic acid, and 40 mM Hepes, as previously described.
Spermatozoa (1 × 10^6 cells) were incubated at 37 °C in 100 μL of Whitten’s medium, with the addition of 1.7 mM CaCl2 and in the absence and presence of different amounts of the tested compounds for 60 min. Then, cells were labeled with the fluorescent nucleic acid stain SYTO 21, which allows for the tracking of the movement of the cell head. After 1 min of incubation with the dye, 5.5 μL aliquots from each sample were taken and placed into a glass cell chamber (Leja Products B.V., Nieuw-Vennep, The Netherlands). Sperm were maintained at 37 °C on a heated platform and viewed with an Olympus BX51 microscope (Olympus, Center Valley, PA, USA) through a 20× phase objective. Images of the moving sperm were captured using a CCD camera. Samples were analyzed by CASA using the Minitube SpermVision Digital Semen Evaluation system (version 3.5; Penetrating Innovations, Verona, WI, USA). An average of 200 cells/field were captured, at a rate of 30 frames per field, and a total of 10 fields in each sample were analyzed. Total sperm motility was obtained from sperm maintained in a non-capacitating medium, while for assessing the hyperactive pattern of motility, typical of sperm capacitation, cells were incubated in Whitten’s medium with the addition of 1.7 mM CaCl2, 25 mM sodium bicarbonate, and 0.5% bovine serum albumin.
Figure 2 Effect of simplified steroidal analogs on mouse sperm total motility. Sperm was isolated from the cauda epididymis and treated in the absence and presence of the indicated concentrations of each compound. After one hour of incubation, sperm motility was determined by CASA. Values are expressed as the mean ± SEM of three determinations.
Figure 4 Effect of non-steroidal small compounds on mouse sperm total motility. Sperm was isolated from the cauda epididymis and treated in the absence and presence of the indicated concentrations of each compound. After 1 h of incubation, sperm motility was determined by CASA. Values are expressed as the mean ± SEM of three determinations.

[1] abbreviates: non-steroidal small molecules, mouse sperm motility.
Where [2] appears, read: simplified steroid analogs, mouse sperm motility.

The structures appear in SMILES notation. pIC50: −log10 of the molar value. Like-named read-outs stand apart in the source and are kept apart here.

For `CC12CCC(=NN=C(N)N)C=C1CCCC2c1cn(Cc2ccccc2)nn1` (centres unmarked) [Compound 40, N’-(5-(1-Benzyl-1H-1,2,3-triazol-4-yl)-4a-methyl-4,4a,5,6,7,8-hexahydronaphthalen-2(3H)-ylidene)amidinohydrazone], the Emax (non-steroidal small molecules) came out at 49%. The pIC50 under setting [1] is 10.22.
In the case of `C[C@]12CC[C@H]3[C@@H](CC=C4C[C@@H](O)CC[C@@]43C)[C@@H]1CC[C@H]2n1cc(-c2ccccc2)nn1` [Compound 24, (3S,8R,9S,10R,13S,14S,17R)-10,13-Dimethyl-17-(4-phenyl-1H-1,2,3-triazol-1-yl)-2,3,4,7,8,9,10,11,12,13,14,15,16,17-tetradecahydro-1H-cyclopenta[a]phenanthren-3-ol], the “Shape of inhibitory dose response on sperm motility” value (from here on “Shape of inhibitory dose response”) is listed as “biphasic inhibition”. The Emax (simplified steroid analogs) amounted to 50%. Also, the pIC50 under setting [2] was 10.82.
In the case of `CC12CCC(=NN=C(N)N)C=C1CCCC2C=NN=C(N)N` (centres unmarked) [Compound 42, (E+Z)-2-((6-(2-Carbamimidoylhydrazineylidene)-8a-methyl-1,2,3,4,6,7,8,8a-octahydronaphthalen-1-yl)methylene)hydrazine-1-carboximidamide], the Emax (non-steroidal small molecules) is 49%. Under setting [1], the pIC50 was 9.52.
The corresponding values for `C[C@]12CCC(=O)C=C1CC[C@@H]2c1cn(Cc2ccccc2)nn1` [Compound 33, (1S,7aR)-1-(1-Benzyl-1H-1,2,3-triazol-4-yl)-7a-methyl-1,2,3,6,7,7a-hexahydro-5H-inden-5-one] are 48% and 10.64.
Take `C[C@]12CC[C@H]3[C@@H](CC=C4C[C@@H](O)CC[C@@]43C)[C@@H]1CC[C@@H]2c1c[nH]nn1` [Compound 15, (3S,8S,9S,10R,13S,14S,17S)-10,13-Dimethyl-17-(1H-1,2,3-triazol-4-yl)-2,3,4,7,8,9,10,11,12,13,14,15,16,17-tetradecahydro-1H-cyclopenta[a]phenanthren-3-ol]: the “Shape of inhibitory dose response” value is listed as “monotonic inhibitory response”. Further, for the setting “simplified steroid analogs”, the Emax turned out to be 42%. In addition, under setting [2], the pIC50 is 10.72 and the “IC50 (pM)” value was “sub-nanomolar range”.
For the compound `CC12CCC(=NN=C(N)N)C=C1CCC2C=NN=C(N)N` [Compound 41, (E+Z)-2-(((1S,7aR,E)-5-(2-Carbamimidoylhydrazineylidene)-7a-methyl-2,3,5,6,7,7a-hexahydro-1H-inden-1-yl)methylene)hydrazine-1-carboximidamide, reference compound], where the note is “non-steroidal small molecules”, the Emax was 44%. In addition, the pIC50 under setting [1] is 10.43.
Consider `CC12CCC(=O)C=C1CCC2c1c[nH]nn1` [Compound 35, (1S,7aR)-7a-Methyl-1-(1H-1,2,3-triazol-4-yl)-1,2,3,6,7,7a-hexahydro-5H-inden-one], for which, for the setting “non-steroidal small molecules”, the Emax is 47%. In addition, the pIC50 under setting [1] was 10.15.
Turning to `C[C@]12CC[C@H](OC(=O)[C@@H](N)CCCCN)CC1=CCC1C2CC[C@@]2(C)C1CC[C@@H]2c1cn(Cc2ccccc2)nn1.Cl.Cl` (stereo partly drawn) [Compound 19, (3S,10R,13S,17S)-17-(1-Benzyl-1H-1,2,3-triazol-4-yl)-10,13-dimethyl-2,3,4,7,8,9,10,11,12,13,14,15,16,17-tetradecahydro-1H-cyclopenta[a]phenanthren-3-yl L-Lysinate Dihydrochloride], the “Shape of inhibitory dose response” value is “biphasic inhibition”. Besides, for the setting “simplified steroid analogs”, the Emax is approximately 37%. For the same compound, under setting [2], the pIC50 was 10.49.
The corresponding values for `C[C@]12CC[C@H]3[C@@H](CC=C4C[C@H](N5CCOCC5)CC[C@@]43C)[C@@H]1CC[C@H]2n1cc(-c2ccccc2)nn1` [Compound 26, 4-((3R,8R,9S,10R,13S,14S,17R)-10,13-Dimethyl-17-(4-phenyl-1H-1,2,3-triazol-1-yl)-2,3,4,7,8,9,10,11,12,13,14,15,16,17-tetradecahydro-1H-cyclopenta[a]phenanthren-3-yl)morpholine] are “biphasic inhibition”, approximately 40% and 10.51.

For orientation: pIC50 means the negative decadic logarithm of the IC50, by convention in mol/L. Read a high pIC50 as a small IC50.

The values above are taken from paper PMC12192727, “Strategies to Develop Na,K-ATPase-α4 Inhibitors as Male Contraceptives” (International Journal of Molecular Sciences, 2025).
